According to patent publication US8927500B2, “Peptidomimetic macrocycles” (Aileron Therapeutics, Inc., priority 2012, dated 2015):
Where a SMILES comes first, the peptide text is derived from it. Bridges are numbered along the chain shown (N, C = ends). [ ]: non-standard residue; d: D form. Phe(4-COOH) = N[C@@H](Cc1ccc(C(=O)O)cc1)C(=O)O; R8 = C=CCCCCCC[C@@](C)(N)C(=O)O; Cba = N[C@@H](CC1CCC1)C(=O)O; S5 = C=CCCC[C@](C)(N)C(=O)O; Nle = CCCC[C@H](N)C(=O)O

Assays:
Caspase 3 = Caspase 3 detection assay in SJSA1 cells; type: cell-based; settings: 48 h, Caspase 3 activation over DMSO-treated cells; for caspase 0.3 uM: 0.3 uM peptide; for caspase 3 uM: 3 uM peptide; for caspase 10 uM: 10 uM peptide; for caspase 30 uM: 30 uM peptide; for caspase 1 uM: 1 uM peptide
SJSA-1 cells = assay: Cell lysis by peptidomimetic macrocycles (LDH release); type: cell-based; settings: 1 h at 37C
MDM2 = MDM2 (Homo sapiens, UniProt Q00987); assay: Competitive fluorescence polarization assay for MDM2; type: binding; settings: competitive FP assay, MDM2; for IC50: read-out: IC50 (MDM2); for Ki: read-out: Ki (MDM2)
Chain of MDM2 (Q00987 1-125): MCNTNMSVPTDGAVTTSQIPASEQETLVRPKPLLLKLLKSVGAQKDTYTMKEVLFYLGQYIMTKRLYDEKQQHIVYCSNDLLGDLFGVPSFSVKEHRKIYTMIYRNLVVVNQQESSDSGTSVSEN

MDMX = target: T1, MDMX (Homo sapiens, UniProt O15151); assay: Competitive fluorescence polarization assay for MDMX; type: binding; settings: competitive FP assay; for IC50: read-out: IC50 (MDMX); for Ki: read-out: Ki (MDMX)
T1 sequence (O15151 1-125): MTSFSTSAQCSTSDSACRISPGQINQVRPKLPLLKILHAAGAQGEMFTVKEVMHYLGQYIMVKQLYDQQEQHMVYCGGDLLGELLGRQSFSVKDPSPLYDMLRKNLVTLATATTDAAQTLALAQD
Protocol: Dilute MDMX (In-house, 40 kD) into FP buffer (High salt buffer-200 mM Nacl, 5 mM CHAPS, pH 7.5.) to make 300 nM (2×) working stock solution. • 2. […] Dilute 1 mM (in 100% DMSO) of FAM labeled linear peptide with DMSO to 100 μM (dilution 1:10). Then, dilute from 100 μM to 10 μM with water (dilution 1:10) and then dilute with FP buffer from 10 μM to 40 nM (dilution 1:250). This is the working solution which will be a 10 nM concentration in well (dilution 1:4). Keep the diluted FAM labeled peptide in the dark until use. • 4. […] Dilute 10 mM (in 100% DMSO) with DMSO to 5 mM (dilution 1:2). Then, dilute from 5 mM to 500 μM with H2O (dilution 1:10) and then dilute with FP buffer from 500 μM to 20 μM (dilution 1:25). […] Transfer 10 μl of serial diluted unlabeled peptides to each well which is filled with 20 μl of 300 nM of protein. • 7. Add 10 μl of 10 nM (4×) of FAM labeled peptide into each well and incubate for 3 hr to read.

[1] = Circular dichroism (CD) analysis of alpha-helicity; type: physicochemical; settings: for Molar Ellipticity 50% TFE (222 in 50% TFE): CD buffer with 50% TFE; for Molar Ellipticity 50% TFE (222 in 50% TFE) / Molar Ellipticity Benign (222 in 0% TFE): 222 nm, 4° C.; for Molar Ellipticity Benign (222 in 0% TFE): benign CD buffer pH 2, 0% TFE; for % Helix benign compared to 50% TFE parent (CD): benign buffer; for Molar Ellipticity TFE-Molar Ellipticity Benign: difference 50% TFE minus benign
Protocol: To assay the helicity of peptidomimetic macrocycles, the compounds are dissolved in an aqueous solution (e.g. 50 mM potassium phosphate solution at pH 7, or distilled H2O, to concentrations of 25-50 μM). Circular dichroism (CD) spectra are obtained on a spectropolarimeter (e.g., Jasco J-710) using standard measurement parameters (e.g. temperature, 20° C.; wavelength, 190-260 nm; step resolution, 0.5 nm; speed, 20 nm/sec; accumulations, 10; response, 1 sec; bandwidth, 1 nm; path length, 0.1 cm). […] A Peltier temperature controller was used to maintain temperature control of the optical cell. Results are expressed as mean molar ellipticity [0] […] Peptide concentrations were determined by amino acid analysis. Stock solutions of peptides were prepared in benign CD buffer (20 mM phosphoric acid, pH 2). The stocks were used to prepare peptide solutions of 0.05 mg/ml in either benign CD buffer or CD buffer with 50% trifluoroethanol (TFE) for analyses in a 10 mm pathlength cell. […] The average of six scans was reported.

| IC50 (MDM2) [nM] | Ki (MDM2) [nM] | IC50 (MDMX) [nM] | Ki (MDMX) [nM] | % Helix 50% TFE compared to 50% TFE parent (CD) [1] [%] | Molar Ellipticity 50% TFE (222 in 50% TFE) [1] [deg cm2 dmol-1] | Molar Ellipticity Benign (222 in 0% TFE) [1] [deg cm2 dmol-1] | % Helix benign compared to 50% TFE parent (CD) [1] [%] | Molar Ellipticity TFE-Molar Ellipticity Benign [1] [deg cm2 dmol-1] | SMILES | caspase 0.3 uM (Caspase 3) | caspase 3 uM (Caspase 3) | caspase 10 uM (Caspase 3) | caspase 30 uM (Caspase 3) | 6.25 uM % Lysed cells (1 h LDH) (SJSA-1 cells) [%] | 25 uM % Lysed cells (1 h LDH) (SJSA-1 cells) [%] | 50 uM % Lysed cells (1 h LDH) (SJSA-1 cells) [%] | caspase 1 uM (Caspase 3) |
| --- | --- | --- | --- | --- | --- | --- | --- | --- | --- | --- | --- | --- | --- | --- | --- | --- | --- |
| < 10 | < 10 | 10 to 100 | < 10 | 123.9 | −17974 | −213.2 | 1.5 | −17760.8 | CC(=O)N[C@@H](CC(C)C)C(=O)N[C@H](C(=O)N[C@@H](Cc1ccccc1)C(=O)N[C@]1(C)CCCCCCC=CCCC[C@@](C)(C(=O)N[C@@H](C)C(=O)N[C@@H](C)C(=O)N[C@@H](C)C(=O)N[C@H](C)C(N)=O)NC(=O)[C@H](CC(C)C)NC(=O)[C@H](CCC(N)=O)NC(=O)[C@H](C)NC(=O)[C@H](Cc2c[nH]c3ccccc23)NC(=O)[C@H](Cc2ccc(O)cc2)NC(=O)[C@H](C)NC1=O)[C@@H](C)O (single isomer, unassigned) [compound 230] | 1 | 2 | 3 | 11 | 0.5 | 0 | 3 |  |
| 10 to 100 | < 10 | 10 to 100 | 10 to 100 | 137.3 | −19921.4 | 124 | −0.9 | −20045.4 | CC(=O)N[C@@H](CC(C)C)C(=O)N[C@H](C(=O)N[C@@H](Cc1ccccc1)C(=O)N[C@]1(C)CCCCCCC=CCCC[C@@](C)(C(=O)N[C@@H](CO)C(=O)N[C@@H](C)C(=O)N[C@@H](Cc2ccccc2)C(N)=O)NC(=O)[C@H](CC(C)C)NC(=O)[C@H](CCC(N)=O)NC(=O)[C@H](C)NC(=O)[C@H](Cc2c[nH]c3ccccc23)NC(=O)[C@H](Cc2ccc(O)cc2)NC(=O)[C@H](C)NC1=O)[C@@H](C)O [compound 7] (Ac-LTF[R8]AYWAQL[S5]SAF-NH2; staple 4-11) | 0.93 | 5.08 | 21.7 | 23.96 | 0 | 0 | 0 | 1.4 |
|  |  |  |  | 106.1 | −16623.4 | −398.2 | 2.5 |  | CC(=O)N[C@@H](CC(C)C)C(=O)N[C@H](C(=O)N[C@@H](Cc1ccccc1)C(=O)N[C@]1(C)CCCCCCC=CCCC[C@@](C)(C(=O)N[C@@H](CO)C(=O)N[C@@H](C)C(=O)N[C@@H](C)C(N)=O)NC(=O)[C@H](CC(C)C)NC(=O)[C@H](CCC(N)=O)NC(=O)[C@H](C)NC(=O)[C@H](Cc2c[nH]c3ccccc23)NC(=O)[C@H](Cc2ccc(O)cc2)NC(=O)[C@H](C)NC1=O)[C@@H](C)O [compound 11] | 1 | 5 | 23 | 33.5 | −2 | 2 | 3 |  |
| 100 to 1000 | 10 to 100 | 10 to 100 | 10 to 100 | 136 | −21319.4 | −909 | 5.8 | 20410.4 | CCCC[C@H](NC(=O)[C@H](CCC(N)=O)NC(=O)[C@H](CCC(N)=O)NC(=O)[C@]1(C)CCCC=CCCCCCC[C@@](C)(NC(=O)[C@H](Cc2ccccc2)NC(C)=O)C(=O)N[C@@H](C)C(=O)N[C@@H](Cc2ccc(O)cc2)C(=O)N[C@@H](Cc2c[nH]c3ccccc23)C(=O)N[C@@H]([C@@H](C)O)C(=O)N[C@@H](C)C(=O)N[C@@H](CC(C)C)C(=O)N1)C(=O)N[C@@H](C(N)=O)C(C)C [compound 41] (Ac-F[R8]AYWTAL[S5]QQ[Nle][dV]-NH2; staple 2-9) |  |  |  |  |  |  |  |  |
| 10 to 100 | < 10 | 10 to 100 | 10 to 100 | 116.4 | −18247.4 | −15334.5 | 97.8 | 2912.9 | CC(=O)N[C@@H](CC(C)C)C(=O)N[C@H](C(=O)N[C@@H](Cc1ccccc1)C(=O)N[C@]1(C)CCCCCCC=CCCC[C@@](C)(C(=O)N[C@@H](Cc2c[nH]cn2)C(=O)N[C@@H](Cc2c[nH]cn2)C(=O)N[C@@H](CC(C)C)C(=O)N[C@H](C)C(N)=O)NC(=O)[C@H](CC(C)C)NC(=O)[C@H](CCC(N)=O)NC(=O)[C@H](C)NC(=O)[C@H](Cc2c[nH]c3ccccc23)NC(=O)[C@H](Cc2ccc(O)cc2)NC(=O)[C@H](C)NC1=O)[C@@H](C)O [compound 43] (Ac-LTF[R8]AYWAQL[S5]HHL[dA]-NH2; staple 4-11) |  |  |  |  | 0 | −1 | −1 |  |
| 10 to 100 | < 10 | 100 to 1000 | 10 to 100 | 148.2 | −21509.7 | −102.6 | 0.7 |  | CCCC[C@H](NC(=O)[C@H](C)NC(=O)[C@H](C)NC(=O)[C@]1(C)CCC/C=C/CCCCCC[C@@](C)(NC(=O)[C@H](Cc2ccccc2)NC(=O)[C@@H](NC(=O)[C@H](CC(C)C)NC(C)=O)[C@@H](C)O)C(=O)N[C@@H](C)C(=O)N[C@@H](Cc2ccc(O)cc2)C(=O)N[C@@H](Cc2c[nH]c3ccccc23)C(=O)N[C@@H](C)C(=O)N[C@@H](CCC(N)=O)C(=O)N[C@@H](CC(C)C)C(=O)N1)C(=O)N[C@@H](C)C(N)=O [compound 69] | 4.34 | 16.39 | 26.59 | 26.11 | 1 | −0.5 | 5 | 9.51 |
|  |  |  |  | 131.2 | −19032.6 | −477.9 | 3.3 | −18554.7 | CC(=O)N[C@@H](CC(C)C)C(=O)N[C@H](C(=O)N[C@@H](Cc1ccccc1)C(=O)N[C@]1(C)CCCCCCC=CCCC[C@@](C)(C(=O)N[C@@H](C)C(=O)N[C@@H](C)C(=O)N[C@@H](C)C(=O)N[C@@H](C)C(=O)N[C@H](C)C(N)=O)NC(=O)[C@H](CC(C)C)NC(=O)[C@H](CCC(N)=O)NC(=O)[C@H](C)NC(=O)[C@H](Cc2c[nH]c3ccccc23)NC(=O)[C@H](Cc2ccc(O)cc2)NC(=O)[C@H](C)NC1=O)[C@@H](C)O [compound 233] | 6 | 17 | 22 | 23 | 2.5 | 3.5 | 6 | 8 |
| < 10 | < 10 | 10 to 100 | < 10 |  |  |  |  |  | CC(=O)N[C@@H](CC(C)C)C(=O)N[C@H](C(=O)N[C@@H](Cc1ccccc1)C(=O)N[C@]1(C)CCCCCC/C=C/CCC[C@@](C)(C(=O)N[C@@H](C)C(=O)N[C@@H](C)C(=O)N[C@@H](C)C(=O)N[C@@H](C)C(=O)N[C@@H](C)C(=O)N[C@H](C)C(N)=O)NC(=O)[C@H](CC2CCC2)NC(=O)[C@H](CCC(N)=O)NC(=O)[C@H](C)NC(=O)[C@H](Cc2c[nH]c3ccccc23)NC(=O)[C@H](Cc2ccc(C(=O)O)cc2)NC(=O)[C@H](CCC(=O)O)NC1=O)[C@@H](C)O [compound 349] (Ac-LTF[R8]E[Phe(4-COOH)]WAQ[Cba][S5]AAAAA[dA]-NH2; staple (E) 4-11) | 1 | 11 | 16 | 24 | 0 | 0 | 0 | 8 |
| < 10 | < 10 | 10 to 100 | < 10 |  |  |  |  |  | CC(=O)N[C@@H](CC(C)C)C(=O)N[C@H](C(=O)N[C@@H](Cc1ccccc1)C(=O)N[C@]1(C)CCCCCC/C=C/CCC[C@@](C)(C(=O)N[C@@H](C)C(=O)N[C@@H](C)C(=O)N[C@@H](C)C(=O)N[C@@H](C)C(=O)N[C@@H](C)C(=O)N[C@H](C)C(N)=O)NC(=O)[C@H](CC2CCC2)NC(=O)[C@H](CCC(N)=O)NC(=O)[C@H](CO)NC(=O)[C@H](Cc2c[nH]c3ccccc23)NC(=O)[C@H](Cc2ccc(O)cc2)NC(=O)[C@H](CCC(=O)O)NC1=O)[C@@H](C)O [compound 351] (Ac-LTF[R8]EYWSQ[Cba][S5]AAAAA[dA]-NH2; staple (E) 4-11) | 3 | 13 | 15 | 24 | 0 | 0 | 0 | 9 |
